Measurements published in patent US5112967A, “Process for synthesizing antibacterial cephalosporin compounds” (Hoffmann-La Roches Inc., priority 1990, dated 1992).
Structures can show the parent of a compound that is named as a salt. Where two headings read alike, the source gives them in different places.

Experiments:
Format in all cases: cell-based
[1] = tested on: P. aeruginosa 8780; assay: Broth Dilution Method MIC; conditions: Pseudomonas aeruginosa, In Vitro
Excerpt: (§1) Compounds of the formula I and Ia, including their active geometric and/or optical isomers, their salts and esters and hydrates of those compounds can be used as agents to combat bacterial infections (including urinary tract infections and respiratory infections) in mammalian species, e.g., dogs, cats, horses, etc., and humans. […]. The […] activity of selected compounds of formulas I and Ia as measured by the Minimum Inhibitory Concentration in micrograms/ml utilizing the Agar Well Diffusion Method, Agar Dilution Method or Broth Dilution Method against a variety of Gram-positive and Gram-negative organisms, is as follows:
(§2) In Vitro MIC (ug/ml) Broth Dilution Method

[2] = tested on: P. aeruginosa 765; assay: Broth Dilution Method MIC; conditions: Pseudomonas aeruginosa, In Vitro
Excerpt: as §1, §2

[3] = tested on: P. aeruginosa 503-56; assay: Broth Dilution Method MIC; conditions: Pseudomonas aeruginosa, 50356, In Vitro
Excerpt: as §1, §2

[4] = tested on: P. aeruginosa 5700; assay: Broth Dilution Method MIC; conditions: Pseudomonas aeruginosa, In Vitro
Excerpt: as §1, §2

[5] = tested on: P. aeruginosa 6148B; assay: Broth Dilution Method MIC; conditions: Pseudomonas aeruginosa, In Vitro
Excerpt: as §1, §2

[6] = tested on: P. aeruginosa 1973E; assay: Broth Dilution Method MIC; conditions: Pseudomonas aeruginosa, In Vitro
Excerpt: as §1, §2

[7] = tested on: P. aeruginosa B; assay: Broth Dilution Method MIC; conditions: Pseudomonas aeruginosa
Excerpt: as §1, §2

[8] = tested on: P. aeruginosa 185/H; assay: Broth Dilution Method MIC; conditions: Pseudomonas aeruginosa, In Vitro
Excerpt: as §1, §2

[9] = tested on: P. aeruginosa K77/61; assay: Broth Dilution Method MIC; conditions: Pseudomonas aeruginosa
Excerpt: as §1, §2

[10] = tested on: P. aeruginosa ATCC 27853; assay: Broth Dilution Method MIC; conditions: Pseudomonas aeruginosa, ATCC27853, In Vitro
Excerpt: as §1, §2

[11] = tested on: P. aeruginosa K77/WT; assay: Broth Dilution Method MIC; conditions: Pseudomonas aeruginosa, In Vitro
Excerpt: as §1, §2

[12] = tested on: P. aeruginosa Stone 130; assay: Broth Dilution Method MIC; conditions: Pseudomonas aeruginosa, STONE130, In Vitro
Excerpt: as §1, §2

[13] = tested on: P. aeruginosa 8710; assay: Broth Dilution Method MIC; conditions: Pseudomonas aeruginosa
Excerpt: as §1, §2

[14] = tested on: E. cloacae P99; assay: Agar Dilution Method MIC; conditions: Enterobacter cloacae
Excerpt: as §1
(§3) In Vitro MIC (ug/ml) Agar Dilution Method

[15] = tested on: S. aureus Smith; assay: Agar Dilution Method MIC; conditions: Staphylococcus aureus, In Vitro
Excerpt: as §1, §3

[16] = tested on: P. vulgaris ATCC 6380; assay: Agar Dilution Method MIC; conditions: Proteus vulgaris, ATCC6380, In Vitro
Excerpt: as §1, §3

[17] = tested on: P. aeruginosa 185/H; assay: Agar Dilution Method MIC; conditions: Pseudomonas aeruginosa, In Vitro
Excerpt: as §1, §3

[18] = tested on: S. aureus 1059B; assay: Agar Dilution Method MIC; conditions: Staphylococcus aureus, In Vitro
Excerpt: as §1, §3

[19] = tested on: S. aureus ATCC 25923; assay: Agar Dilution Method MIC; conditions: Staphylococcus aureus, ATCC25923, In Vitro
Excerpt: as §1, §3

[20] = tested on: P. mirabilis 190; assay: Agar Dilution Method MIC; conditions: Proteus mirabilis, In Vitro
Excerpt: as §1, §3

[21] = tested on: S. marscescens SM; assay: Agar Dilution Method MIC; conditions: In Vitro
Excerpt: as §1, §3

[22] = tested on: E. cloacae 9570A; assay: Agar Dilution Method MIC; conditions: Enterobacter cloacae, In Vitro
Excerpt: as §1, §3

[23] = tested on: S. aureus 95; assay: Agar Dilution Method MIC; conditions: Staphylococcus aureus, In Vitro
Excerpt: as §1, §3

[24] = tested on: S. aureus Giorgid; assay: Agar Dilution Method MIC; conditions: Staphylococcus aureus, In Vitro
Excerpt: as §1, §3

[25] = tested on: P. aeruginosa Stone 130; assay: Agar Dilution Method MIC; conditions: Pseudomonas aeruginosa, STONE130, In Vitro
Excerpt: as §1, §3

[26] = tested on: P. aeruginosa 130; assay: Agar Dilution Method MIC; conditions: Pseudomonas aeruginosa, In Vitro
Excerpt: as §1, §3

[27] = In Vitro, Broth Dilution, P. aeruginosa B, read-out: MIC

| SMILES | MIC [1] [µg/mL] | MIC [2] [µg/mL] | MIC [3] [µg/mL] | MIC [4] [µg/mL] | MIC [5] [µg/mL] | MIC [6] [µg/mL] | MIC [7, 27] [µg/mL] | MIC [8] [µg/mL] | MIC [9] [µg/mL] | MIC [10] [µg/mL] | MIC [11] [µg/mL] | MIC [12] [µg/mL] | MIC [13]; 8710 [µg/mL] | also measured |
| --- | --- | --- | --- | --- | --- | --- | --- | --- | --- | --- | --- | --- | --- | --- |
| CON=C(C(=O)NC1C(=O)N2C(C(=O)O)=C(COC(=O)c3ccc(O)c(O)c3)CSC12)c1csc(N)n1 (stereo not drawn) [Compound A, [6R-[6 alpha,7 beta(Z)]]-7-[[2-amino-4-thiazolyl)(methoxyimino)acetyl]amino]-3-[[[(3,4-dihydroxyphenyl)carbonyl]oxy]methyl]-8-oxo-5-thia-1-azabicyclo[4.2.0]oct-2-ene-2-carboxylic acid monosodium salt] | 0.5 | 4 | 4 | 8 | 2 | 4 | 2 | 0.016 | 0.25 | 8 | 1 | 2 |  | MIC ([13]; In Vitro, Broth Dilution, P. aeruginosa 8710, read-out: MIC): 2 µg/mL |
| CC(=O)Oc1ccc(C(=O)OCC2=C(C(=O)O)N3C(=O)C(NC(=O)C(=NOCC(N)=O)c4csc(N)n4)C3SC2)cc1OC(C)=O (stereo not drawn) [Compound B, [6R-[alpha,7 beta(Z)]]-3-[[[3,4-bis(acetyloxy)benzoyl]oxy]methyl]-7-[[[2-amino-4-thiazolyl][(2-amino-2-oxoethoxy)imino]acetyl]amino]-8-oxo-5-thia-1-azabicyclo[4.2.0]oct-2-ene-2-carboxylic acid monosodium salt] |  |  |  |  |  |  |  |  |  |  |  |  |  | MIC [14]: 32 µg/mL; MIC [15]: 4 µg/mL; MIC [16]: 0.016 µg/mL; MIC [17]: 2 µg/mL; MIC [18]: 4 µg/mL; MIC [19]: 2 µg/mL; MIC [20]: 0.063 µg/mL; MIC [21]: 1 µg/mL; MIC [22]: 1 µg/mL; MIC [23]: 64 µg/mL; MIC [24]: 8 µg/mL; MIC [25]: 4 µg/mL; MIC [26]: 4 µg/mL |
| CC(C)(ON=C(C(=O)NC1C(=O)N2C(C(=O)O)=C(COC(=O)c3ccc(O)c(O)c3)CSC12)c1csc(N)n1)C(=O)O (stereo not drawn) [Compound C, [6R-[6 alpha,7 beta(Z)]]-7-[[(2-amino-4-thiazolyl)(1-carboxy-1-methylethoxy)imino]acetyl]amino]-3-[[3,4-dihydroxybenzoyl)oxy]methyl]-8-oxo-5-thia-1-azabicyclo[4.2.0]oct-2-ene-2-carboxylicacid disodium salt] | > 0.008 | 8 | 0.25 | 2 | 0.031 | 2 |  | 0.031 | > 0.008 | 32 | 0.63 | 0.125 | 0.063 | MIC [7]: 0.125 µg/mL |
| CCN1CCN(C(=O)N[C@@H](C(=O)N[C@@H]2C(=O)N3C(C(=O)O)=C(COC(=O)c4ccc(O)c(O)c4)CS[C@H]23)c2ccccc2)C(=O)C1=O [Compound D, [6R-[6 alpha,7 beta(R*)]]-7-[[[[(4-ethyl-2,4-dioxo-1-piperazinyl)carbonyl]amino]phenyl-acetyl]amino-3-[[(3,4-dihydroxy)benzoyl]oxy]-methyl]-8-oxo-5-thia-1-azabicyclo[4.2.0.]-oct-2-ene-2-carboxylic acid monosodium salt] | 0.016 | 128 | 4 | 4 | 0.125 | 4 | 0.25 | 0.125 | 0.016 | 0.5 | 0.25 | 0.5 | 0.125 |  |
